Source: publication PMC8799717, “Pharmacological targeting PIKfyve and tubulin as an effective treatment strategy for double-hit lymphoma” (Cell Death Discovery, 2022)

Assays:
Assay in all cases: biochemical
Set-up in all cases: KINOMEscan active-site-directed competition binding panel, 468 kinases, percent of DMSO control at 1 uM
Conditions in all cases: KINOMEscan binding, percent of DMSO control; read-out: Ctrl%
ADCK3 = molecular target: T1, ADCK3 (Homo sapiens, UniProt Q8NI60)
T1 construct: gene COQ8A
T1 sequence (Q8NI60 whole entry): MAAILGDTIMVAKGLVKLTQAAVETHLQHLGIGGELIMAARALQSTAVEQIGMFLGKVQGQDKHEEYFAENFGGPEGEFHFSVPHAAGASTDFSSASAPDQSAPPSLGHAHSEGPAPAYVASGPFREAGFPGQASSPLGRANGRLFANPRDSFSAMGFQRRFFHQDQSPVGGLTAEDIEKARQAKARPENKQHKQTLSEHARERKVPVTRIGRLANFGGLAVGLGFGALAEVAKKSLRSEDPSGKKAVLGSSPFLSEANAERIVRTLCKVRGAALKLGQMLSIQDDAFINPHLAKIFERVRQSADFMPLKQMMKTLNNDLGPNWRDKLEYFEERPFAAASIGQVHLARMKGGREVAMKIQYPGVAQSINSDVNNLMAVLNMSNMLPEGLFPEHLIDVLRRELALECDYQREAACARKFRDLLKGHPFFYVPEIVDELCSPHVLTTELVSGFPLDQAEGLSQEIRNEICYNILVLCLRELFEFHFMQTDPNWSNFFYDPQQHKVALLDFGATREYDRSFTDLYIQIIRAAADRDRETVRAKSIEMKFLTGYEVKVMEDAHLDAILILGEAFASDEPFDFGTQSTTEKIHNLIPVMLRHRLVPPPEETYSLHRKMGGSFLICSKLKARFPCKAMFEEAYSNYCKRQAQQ

CDKL2 = CDKL2 (Homo sapiens, UniProt Q92772)
CDKL2, sequence (Q92772 whole entry): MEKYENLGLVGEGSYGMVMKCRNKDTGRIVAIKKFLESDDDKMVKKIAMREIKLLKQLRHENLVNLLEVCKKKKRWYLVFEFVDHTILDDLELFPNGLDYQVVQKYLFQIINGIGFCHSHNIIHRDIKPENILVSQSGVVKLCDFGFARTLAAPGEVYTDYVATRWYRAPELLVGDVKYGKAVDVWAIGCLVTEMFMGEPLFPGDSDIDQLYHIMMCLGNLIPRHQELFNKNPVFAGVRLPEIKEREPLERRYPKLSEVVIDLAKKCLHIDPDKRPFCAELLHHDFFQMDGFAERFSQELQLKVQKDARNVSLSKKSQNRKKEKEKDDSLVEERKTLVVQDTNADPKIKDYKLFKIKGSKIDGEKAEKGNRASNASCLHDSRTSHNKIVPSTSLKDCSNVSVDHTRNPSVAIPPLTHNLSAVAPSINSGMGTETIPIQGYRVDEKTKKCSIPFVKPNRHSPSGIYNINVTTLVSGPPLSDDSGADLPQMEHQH

CSNK1G1 = CSNK1G1 (Homo sapiens, UniProt Q9HCP0)
CSNK1G1, sequence (Q9HCP0 whole entry): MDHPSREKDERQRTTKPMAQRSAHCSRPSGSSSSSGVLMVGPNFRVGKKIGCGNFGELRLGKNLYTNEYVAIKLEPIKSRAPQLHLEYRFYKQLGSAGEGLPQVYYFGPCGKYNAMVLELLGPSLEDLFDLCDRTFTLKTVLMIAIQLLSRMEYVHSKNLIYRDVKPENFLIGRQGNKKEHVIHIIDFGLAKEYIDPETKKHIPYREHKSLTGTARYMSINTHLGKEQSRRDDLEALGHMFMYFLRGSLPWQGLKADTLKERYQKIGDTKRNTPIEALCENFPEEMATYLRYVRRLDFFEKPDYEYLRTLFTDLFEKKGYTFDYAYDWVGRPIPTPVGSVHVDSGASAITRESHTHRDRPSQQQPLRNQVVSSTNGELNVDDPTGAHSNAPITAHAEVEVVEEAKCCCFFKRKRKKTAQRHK

DMPK = DMPK (Homo sapiens, UniProt Q09013)
EGFR(G719S) = EGFR(G719S) (Homo sapiens, UniProt P00533, G719S)
EGFR(T790M) = EGFR(T790M) (Homo sapiens, UniProt P00533, T790M)
EPHB4 = EPHB4 (Homo sapiens, UniProt P54760)
HIPK2 = HIPK2 (Homo sapiens, UniProt Q9H2X6)
HIPK2, sequence (Q9H2X6 whole entry): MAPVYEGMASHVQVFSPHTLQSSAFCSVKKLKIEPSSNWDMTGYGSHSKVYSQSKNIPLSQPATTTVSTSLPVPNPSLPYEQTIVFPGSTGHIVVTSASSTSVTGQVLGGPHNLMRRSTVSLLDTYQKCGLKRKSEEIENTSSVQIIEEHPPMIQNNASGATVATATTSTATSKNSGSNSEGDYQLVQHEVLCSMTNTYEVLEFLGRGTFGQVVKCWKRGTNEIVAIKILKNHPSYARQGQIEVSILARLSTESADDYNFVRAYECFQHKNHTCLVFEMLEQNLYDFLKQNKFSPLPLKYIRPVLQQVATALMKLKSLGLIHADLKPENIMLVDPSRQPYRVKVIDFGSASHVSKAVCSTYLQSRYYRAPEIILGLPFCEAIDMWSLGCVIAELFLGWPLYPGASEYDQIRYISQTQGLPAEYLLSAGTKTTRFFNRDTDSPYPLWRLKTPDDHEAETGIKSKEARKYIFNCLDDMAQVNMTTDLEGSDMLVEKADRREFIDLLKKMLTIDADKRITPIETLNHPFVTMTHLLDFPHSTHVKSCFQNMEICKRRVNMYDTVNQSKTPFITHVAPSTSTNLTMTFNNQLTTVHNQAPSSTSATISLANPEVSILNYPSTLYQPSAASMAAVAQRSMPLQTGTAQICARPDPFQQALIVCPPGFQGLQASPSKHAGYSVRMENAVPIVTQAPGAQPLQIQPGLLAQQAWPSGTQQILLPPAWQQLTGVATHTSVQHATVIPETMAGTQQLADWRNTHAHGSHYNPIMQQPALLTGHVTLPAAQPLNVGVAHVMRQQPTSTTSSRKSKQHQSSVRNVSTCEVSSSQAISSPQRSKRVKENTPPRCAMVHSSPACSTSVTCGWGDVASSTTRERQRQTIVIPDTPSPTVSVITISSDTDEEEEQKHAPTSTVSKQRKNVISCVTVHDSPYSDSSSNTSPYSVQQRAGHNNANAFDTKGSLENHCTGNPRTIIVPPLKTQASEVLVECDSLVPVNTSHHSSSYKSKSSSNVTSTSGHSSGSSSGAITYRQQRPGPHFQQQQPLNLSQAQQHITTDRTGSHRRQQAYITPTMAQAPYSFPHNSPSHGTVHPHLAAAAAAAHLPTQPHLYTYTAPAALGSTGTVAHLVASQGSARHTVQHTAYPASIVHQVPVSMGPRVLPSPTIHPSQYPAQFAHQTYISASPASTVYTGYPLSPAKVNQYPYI

[1] = molecular target: T2, JAK1(JH1domain-catalytic) (Homo sapiens, UniProt P23458)
T2 construct: JH1domain-catalytic

KIT(D816H) = KIT(D816H) (Homo sapiens, UniProt P10721, D816H)
MAP3K3 = MAP3K3 (Homo sapiens, UniProt Q99759)
NIM1 = molecular target: T3, NIM1 (Homo sapiens, UniProt Q8IY84)
T3 construct: gene NIM1K

PIK3C2B = PIK3C2B (Homo sapiens, UniProt O00750)
PIK3C2G = PIK3C2G (Homo sapiens, UniProt O75747)
PIK3CA = PIK3CA (Homo sapiens, UniProt P42336)
PIP5K2B = molecular target: T4, PIP5K2B (Homo sapiens, UniProt P78356)
T4 construct: gene PIP4K2B
T4 sequence (P78356 whole entry): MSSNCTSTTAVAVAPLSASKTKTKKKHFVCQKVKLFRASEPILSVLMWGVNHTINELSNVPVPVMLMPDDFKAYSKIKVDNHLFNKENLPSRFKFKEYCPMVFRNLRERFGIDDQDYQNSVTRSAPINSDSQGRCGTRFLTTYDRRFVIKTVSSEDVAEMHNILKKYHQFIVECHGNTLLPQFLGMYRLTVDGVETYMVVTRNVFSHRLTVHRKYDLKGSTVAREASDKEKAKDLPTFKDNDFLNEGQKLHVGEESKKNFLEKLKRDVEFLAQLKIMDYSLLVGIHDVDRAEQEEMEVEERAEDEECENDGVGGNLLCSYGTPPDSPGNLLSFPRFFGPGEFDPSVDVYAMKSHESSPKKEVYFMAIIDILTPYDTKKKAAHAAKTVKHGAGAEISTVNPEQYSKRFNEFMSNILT

PLK4 = PLK4 (Homo sapiens, UniProt O00444)
PYK2 = molecular target: T5, PYK2 (Homo sapiens, UniProt Q14289)
T5 construct: gene PTK2B

[2] = molecular target: T6, RSK2(Kin.Dom.2-C-terminal) (Homo sapiens, UniProt P51812)
T6 construct: gene RPS6KA3; Kin.Dom.2-C-terminal

[3] = molecular target: T7, RSK3(Kin.Dom.1-N-terminal) (Homo sapiens, UniProt Q15349)
T7 construct: gene RPS6KA2; Kin.Dom.1-N-terminal

TNIK = TNIK (Homo sapiens, UniProt Q9UKE5)
TNIK, sequence (Q9UKE5 whole entry): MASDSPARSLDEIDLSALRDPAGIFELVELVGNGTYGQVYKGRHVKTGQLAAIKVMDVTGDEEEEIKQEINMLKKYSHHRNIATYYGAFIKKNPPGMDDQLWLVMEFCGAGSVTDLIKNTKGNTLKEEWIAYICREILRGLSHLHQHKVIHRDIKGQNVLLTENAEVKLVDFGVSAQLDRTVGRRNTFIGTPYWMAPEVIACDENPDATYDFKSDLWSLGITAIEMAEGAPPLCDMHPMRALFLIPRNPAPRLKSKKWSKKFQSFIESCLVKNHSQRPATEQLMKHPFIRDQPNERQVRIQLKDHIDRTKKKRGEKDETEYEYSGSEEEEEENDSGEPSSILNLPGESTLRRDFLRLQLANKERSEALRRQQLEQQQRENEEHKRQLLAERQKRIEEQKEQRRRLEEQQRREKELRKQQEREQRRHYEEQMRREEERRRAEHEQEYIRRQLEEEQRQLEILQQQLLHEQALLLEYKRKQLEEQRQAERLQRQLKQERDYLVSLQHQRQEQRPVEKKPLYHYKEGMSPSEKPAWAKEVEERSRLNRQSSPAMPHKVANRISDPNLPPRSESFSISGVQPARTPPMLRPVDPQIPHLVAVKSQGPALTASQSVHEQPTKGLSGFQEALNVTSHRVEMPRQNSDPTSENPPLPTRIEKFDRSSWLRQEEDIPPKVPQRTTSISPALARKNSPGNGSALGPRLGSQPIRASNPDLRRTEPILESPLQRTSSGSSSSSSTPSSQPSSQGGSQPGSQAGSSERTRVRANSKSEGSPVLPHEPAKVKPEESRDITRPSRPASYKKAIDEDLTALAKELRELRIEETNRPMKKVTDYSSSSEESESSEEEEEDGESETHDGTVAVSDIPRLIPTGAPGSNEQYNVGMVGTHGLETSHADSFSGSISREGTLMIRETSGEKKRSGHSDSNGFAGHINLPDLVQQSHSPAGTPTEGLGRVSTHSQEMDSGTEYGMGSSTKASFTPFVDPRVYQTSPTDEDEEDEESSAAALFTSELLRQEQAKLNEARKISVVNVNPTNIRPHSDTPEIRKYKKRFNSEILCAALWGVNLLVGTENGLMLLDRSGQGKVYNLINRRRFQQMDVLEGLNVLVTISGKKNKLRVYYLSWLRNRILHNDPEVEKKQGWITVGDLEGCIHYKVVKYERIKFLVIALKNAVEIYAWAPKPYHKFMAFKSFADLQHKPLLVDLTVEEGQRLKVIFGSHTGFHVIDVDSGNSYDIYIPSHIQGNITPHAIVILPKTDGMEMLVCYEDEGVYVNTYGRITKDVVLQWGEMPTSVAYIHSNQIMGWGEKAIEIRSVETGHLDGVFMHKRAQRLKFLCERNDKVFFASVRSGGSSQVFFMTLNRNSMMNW

TSSK1B = TSSK1B (Homo sapiens, UniProt Q9BXA7)
YSK1 = molecular target: T8, YSK1 (Homo sapiens, UniProt O00506)
T8 construct: gene STK25
T8 sequence (O00506 whole entry): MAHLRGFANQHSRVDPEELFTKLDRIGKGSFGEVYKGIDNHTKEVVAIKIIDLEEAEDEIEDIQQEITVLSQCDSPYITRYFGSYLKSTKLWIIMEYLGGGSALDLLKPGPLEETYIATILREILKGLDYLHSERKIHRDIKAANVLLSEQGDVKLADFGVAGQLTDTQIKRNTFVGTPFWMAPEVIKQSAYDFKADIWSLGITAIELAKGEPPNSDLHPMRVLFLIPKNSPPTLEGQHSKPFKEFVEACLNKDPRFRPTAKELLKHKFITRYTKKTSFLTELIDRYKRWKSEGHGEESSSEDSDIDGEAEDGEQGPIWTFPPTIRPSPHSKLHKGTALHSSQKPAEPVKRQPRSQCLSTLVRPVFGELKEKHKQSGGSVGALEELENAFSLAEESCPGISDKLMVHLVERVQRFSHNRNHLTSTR

Cc1ccc(NC(=O)c2cccc(C(F)(F)F)c2)cc1Nc1cc(-c2cccnc2)nc2[nH]ccc12 [HZX-02-059] was tested, and the remaining binding at 1 µM (ADCK3) was 97%, the remaining binding at 1 µM (CDKL2) was 99% and the remaining binding at 1 µM (CSNK1G1) was 83%. For the same molecule, the remaining binding at 1 µM (DMPK) was 81%, the remaining binding at 1 µM (EGFR(G719S)) was 97% and the remaining binding at 1 µM (EGFR(T790M)) was 94%. For the same molecule, the remaining binding at 1 µM (EPHB4) was 30%, the remaining binding at 1 µM (HIPK2) was 100% and the remaining binding at 1 µM [1] was 100%. It also gave a remaining binding at 1 µM (KIT(D816H)) of 100%, a remaining binding at 1 µM (MAP3K3) of 89% and a remaining binding at 1 µM (NIM1) of 99%. It also gave a remaining binding at 1 µM (PIK3C2B) of 100%, a remaining binding at 1 µM (PIK3C2G) of 86% and a remaining binding at 1 µM (PIK3CA) of 100%. It also gave a remaining binding at 1 µM (PIP5K2B) of 76%, a remaining binding at 1 µM (PLK4) of 91% and a remaining binding at 1 µM (PYK2) of 100%. For the same molecule, the remaining binding at 1 µM [2] was 100%, the remaining binding at 1 µM [3] was 98% and the remaining binding at 1 µM (TNIK) was 100%. It also gave a remaining binding at 1 µM (TSSK1B) of 100% and a remaining binding at 1 µM (YSK1) of 94%.
